The structures appear in SMILES notation.

The target in the first experiment is T1, cloned human dopamine D3 receptors (Homo sapiens, UniProt P35462).
T1 construct: expressed in transfected cells; membrane homogenate
T1 sequence (P35462 whole entry): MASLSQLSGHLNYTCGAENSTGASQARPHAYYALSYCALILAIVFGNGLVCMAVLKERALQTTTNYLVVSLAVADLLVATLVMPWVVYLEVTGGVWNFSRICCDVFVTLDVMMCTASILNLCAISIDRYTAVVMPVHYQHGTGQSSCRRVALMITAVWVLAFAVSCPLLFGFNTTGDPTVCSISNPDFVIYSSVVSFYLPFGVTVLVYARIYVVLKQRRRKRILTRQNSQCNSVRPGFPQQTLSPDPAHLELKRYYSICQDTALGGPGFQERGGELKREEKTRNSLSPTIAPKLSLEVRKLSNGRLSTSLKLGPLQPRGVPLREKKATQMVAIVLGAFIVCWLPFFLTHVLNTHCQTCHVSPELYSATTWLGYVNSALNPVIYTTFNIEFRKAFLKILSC
Kind of experiment: [N-Methyl-3H]Spiroperidol binding to cloned human dopamine D3 receptors (Protocol 1). Conditions: Table 2; read-out: D3K1. A digest of the protocol: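 Membranes from CHO cells stably expressing cloned human D3 receptor were used for [N-methyl-3H]spiroperidol (60-90 Ci/mmol) binding. Assay buffer was 0.05 M Tris HCl pH 7.7 with 120 mM NaCl, 5 mM KCl, 2 mM CaCl2 and 1 mM MgCl2, optionally 0.1% ascorbic acid; total ligand concentration calculated from added CPM.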
Consider `O=C(NCCCCN1CCN(c2csc3cc(C(F)(F)F)ccc23)CC1)c1ccc(-c2ccccc2)cc1` [815547A], for which the Ki is 3.43 nM.

Still in this experiment, the particulars now being: read-out: D3K1.
With `O=C(NCCCCN1CCN(c2csc3cc(C(F)(F)F)ccc23)CC1)c1c(F)cccc1F` [compound 815557], the Ki was found to be 8.7 nM.

Turning to `O=C(NCCCCN1CCN(c2csc3cc(C(F)(F)F)ccc23)CC1)c1ccc(C(F)(F)F)cc1` [compound 815555], the Ki amounted to 7 nM.

Regarding `O=C(NCCCCN1CCN(c2csc3cc(C(F)(F)F)ccc23)CC1)c1ccc2c(c1)OCO2` [compound 815544], the Ki worked out at 1.7 nM.

As for `COc1ccccc1C(=O)NCCCCN1CCN(c2csc3cc(C(F)(F)F)ccc23)CC1` [compound 815554], the Ki came out at 9.7 nM.

With `O=C(NCCCCN1CCN(c2csc3cc(C(F)(F)F)ccc23)CC1)c1ccc(F)cc1F` [compound 815542], the Ki was 5.6 nM.

Consider `O=C(NCCCCN1CCN(c2csc3cc(C(F)(F)F)ccc23)CC1)c1ccc(Br)cc1` [compound 815551], for which the Ki is 4.3 nM.

Consider `O=C(NCCCCN1CCN(c2csc3cc(C(F)(F)F)ccc23)CC1)c1cc2ccccc2s1` [814238A], for which the Ki was found to be 1.9 nM.

Take `CCOc1ccc(C(=O)NCCCCN2CCN(c3csc4cc(C(F)(F)F)ccc34)CC2)cc1` [compound 815541]: the Ki amounted to 12 nM.

Turning to `O=C(NCCCCN1CCN(c2csc3cc(C(F)(F)F)ccc23)CC1)c1ccc(Cl)cc1` [compound 815548], the Ki is 1.6 nM.

`O=C(NCCCCN1CCN(c2csc3cc(C(F)(F)F)ccc23)CC1)c1ccco1` [compound 815556]: the Ki was determined as 6.4 nM.

Turning to `CCCCOc1ccc(C(=O)NCCCCN2CCN(c3csc4cc(C(F)(F)F)ccc34)CC2)cc1` [compound 815545], the Ki was determined as 38.6 nM.

For `O=C(NCCCCN1CCN(c2csc3cc(C(F)(F)F)ccc23)CC1)c1sc2ccccc2c1Cl` [compound 815546], the Ki is 49 nM.

Still in this experiment, the particulars now being: the 13th table, unit inferred; read-out: D3Ki.
For `O=C(NCCCCN1CCCN(c2csc3cc(F)ccc23)CC1)c1ccc(OC(F)(F)F)cc1` [compound 822152], the Ki came out at 4.5 nM.

Turning to `CC(C)(C)c1ccc(C(=O)NCCCCN2CCCN(c3csc4cc(F)ccc34)CC2)cc1` [compound 822198], the Ki turned out to be 10.5 nM.

Take `O=C(NCCCCN1CCCN(c2csc3cc(F)ccc23)CC1)c1ccc2ccccc2c1` [822223G]: the Ki is 2.45 nM.

As for `O=C(NCCCCN1CCCN(c2csc3cc(F)ccc23)CC1)c1cc2ccccc2s1` [822224G], the Ki amounted to 1.07 nM.

For the molecule `COc1ccccc1C(=O)NCCCCN1CCCN(c2csc3cc(F)ccc23)CC1` [compound 822157], the Ki stood at 1.4 nM.

In the case of `O=C(NCCCCN1CCCN(c2csc3cc(F)ccc23)CC1)c1cccc(F)c1` [compound 822154], the Ki was found to be 5.3 nM.

Take `O=C(NCCCCN1CCCN(c2csc3cc(F)ccc23)CC1)c1ccco1` [S981843]: the Ki was 0.066 nM.

Source of the values: patent US7550469B2, “Heterocyclic amide derivatives and their use as dopamine D3 receptor ligands” (Aventis Pharmaceuticals Inc., priority 2001, dated 2009).
